# Where a name gives a salt, the structure may show the parent alone.
# Legend:
# [1] = Hygroscopicity at 92% relative humidity; assay type: physicochemical; details: room temperature, up to 37 days
# [2] = Solid state chemical stability on storage at elevated temperature and relative humidity; assay type: physicochemical; details: for BPPF% / mono(POC) PMPA fumarate% / bis(POC) PMPA citrate% / mono(POC) PMPA citrate%: 0 days; for mono(POC) PMPA fumarate%: degradation product in stored BPPF
# Description: The solid state chemical stability of cBPPF and bis(POC)PMPA·citrate salt was compared by analyzing each compound after storage under different conditions.
# [3] = human, in vivo
compound,measurement,setting,value
9-[2-(R)-[[bis[[(isopropoxycarbonyl)oxy]methoxy] phosphinoyl]methoxy]propyl]-adenine•fumaric acid (1:1) [BPPF],hygroscopicity,[1],not hygroscopic
same,BPPF%,"[2]; 40°C, 75% relative humidity",99.0%
same,mono(POC) PMPA fumarate%,"[2]; 40°C, 75% relative humidity",1.0%
same,BPPF%,"[2]; 60°C, 75% relative humidity",99.0%
same,mono(POC) PMPA fumarate%,"[2]; 60°C, 75% relative humidity",1.0%
same,solid state chemical stability compared with bis(POC)PMPA citrate salt,[2]; storage at elevated temperature and relative humidity,more stable
same,oral bioavailability,[3],30-40%
CC(C)OC(=O)OCOP(=O)(CO[C@H](C)Cn1cnc2c(N)ncnc21)OCOC(=O)OC(C)C [bis(POC) PMPA citrate],bis(POC) PMPA citrate%,"[2]; 40°C, 75% relative humidity",99.0%
same,mono(POC) PMPA citrate%,"[2]; 40°C, 75% relative humidity, degradation product in stored citrate salt",1.0%
same,bis(POC) PMPA citrate%,"[2]; 60°C, 75% relative humidity",99.0%
same,mono(POC) PMPA citrate%,"[2]; 60°C, 75% relative humidity, degradation product in stored citrate salt",1.0%
same,remaining at 336 h,"[2]; solid, 75% rh, 40°C, 75% relative humidity, 14 days, read-out: bis(POC) PMPA citrate%",96.9%
same,remaining at 720 h,"[2]; solid, 75% rh, 40°C, 75% relative humidity, 30 days, read-out: bis(POC) PMPA citrate%",92.9%
same,remaining at 1440 h,"[2]; solid, 75% rh, 40°C, 75% relative humidity, 60 days, read-out: bis(POC) PMPA citrate%",77.6%
same,remaining at 72 h,"[2]; solid, 75% rh, 60°C, 75% relative humidity, 3 days, read-out: bis(POC) PMPA citrate%",24%
same,remaining at 168 h,"[2]; solid, 75% rh, 60°C, 75% relative humidity, 7 days, read-out: bis(POC) PMPA citrate%",6.7%
same,degraded at 336 h,"[2]; solid, 40°C, 75% relative humidity, 14 days, degradation product in stored citrate salt, read-out: mono(POC) PMPA citrate%",3.1%
same,degraded at 720 h,"[2]; solid, 40°C, 75% relative humidity, 30 days, degradation product in stored citrate salt, read-out: mono(POC) PMPA citrate%",7.1%
same,degraded at 1440 h,"[2]; solid, 40°C, 75% relative humidity, 60 days, degradation product in stored citrate salt, read-out: mono(POC) PMPA citrate%",22.4%
same,degraded at 72 h,"[2]; solid, 60°C, 75% relative humidity, 3 days, degradation product in stored citrate salt, other products were generated in addition, read-out: mono(POC) PMPA citrate%",58.9%
same,degraded at 168 h,"[2]; solid, 60°C, 75% relative humidity, 7 days, degradation product in stored citrate salt, other products were generated in addition, read-out: mono(POC) PMPA citrate%",76.2%

# From patent EP1243590A2, “Nucleotide analog composition and synthesis method” (GILEAD SCIENCES, INC., priority 1997, dated 1999)
